Where “and” joins values, the source holds several entries; their conditions need not be identical. Equal entries are not always repeated. Entries after “also recorded” stand apart in the source; their conditions may differ. Where two headings read alike, the source gives them in different places.
Columns and labels:
[1] = test system: HCT116 cells; details: read-out: GI50 (potency), cited from earlier work
[2] = test system: HT29 cells; details: read-out: GI50 (potency), cited from earlier work
[3] = test system: HCT116 cells; experiment: Sulforhodamine B (SRB) growth inhibition assay with median effect analysis, HCT116; format: cell-based, human; details: HCT116, single agent
Description: (§1) Growth was then measured using the Sulforhodamine B (SRB) method and analysed as described previously. The GI50 concentration was calculated based on a standard point to point curve with 1000 segments using GraphPad Prism software (California, USA). The data were analysed by median effect analysis using CalcuSyn software (Biosoft, Cambridgeshire, UK), which calculates the combination index of multiple drugs by an algebraic estimation algorithm.

[4] = parameters: method as in earlier work; details: dose escalation study in healthy volunteers; cited from earlier work
[5] = test system: HT29 cells; experiment: Clonogenic cytotoxicity assay, HT29
Description: (§6) HCT116 and HT29 human colorectal cancer cells were obtained from the ATCC (American Type Culture Collection).
(§7) After growth for 10–14 days, colonies were fixed in methanol–acetic acid 3:1 (v/v) and stained with crystal violet (0.4% w/v). Colonies consisting of more than 50 cells were counted on an automated colony counter (Oxford Optronix, Oxford, UK). Two-tailed paired t tests were used to compare the different groups. Differences with a p < 0.05 were considered statistically significant.

[6] = Pharmacokinetic study, plasma and tumour concentrations, HT29 xenograft-bearing mice; format: in vivo
Description: (§2) Animal studies were all carried out using female athymic CD1 nude mice (Charles River, Kent, UK), implanted with HCT116 or HT29 xenografts (1 × 10^7 cells in 50 µl media injected subcutaneously into the right flank), maintained and handled in isolators under specific pathogen-free conditions.
(§3) Mice bearing HCT116 or HT29 human tumour xenografts were treated with 1 or 5 mg/kg WX-554, or 20 or 100 mg/kg WX-037, alone or in combination, and were bled by cardiac puncture under terminal anaesthesia at 6 or 24 h post-treatment (3 mice/time point). Blood was collected into heparinized tubes, and plasma was separated and stored at −20 °C until analysed. Tumours were removed, snap frozen in liquid nitrogen and stored at −80 °C prior to PK analyses. Samples were extracted with solid phase extraction (SPE) and analysed with high-performance liquid chromatography (HPLC) coupled with tandem mass spectrometry (MS/MS) by Wilex (Munich, Germany). The quantification limit for WX-554 was 1 ng/mL and within and between day variation was <15%. WinNonlin Software Version 4.0.1 (Pharsight Corporation, Peypin, France) was used for PK/PD modelling and non-compartmental analysis. Paired t tests were used to compare the different treatment groups, and differences with a p value ≤0.05 were considered statistically significant.

[7] = parameters: method as in PMID 23587417, PMID 24434059; details: recent Phase I study; cited from earlier work
[8] = Tolerability (body weight) in the HCT116 xenograft efficacy study; format: in vivo; details: HCT116 xenograft mice, 2 mg/kg WX-554 and/or 50 mg/kg WX-037 p.o. once daily for 14 days
Description: (§4) Mice bearing HCT116 human tumour xenografts were randomized into treatment groups and then treated by oral gavage with either the vehicle (10 ml/kg), 2 mg/kg WX-554, 50 mg/kg WX-037 or the combination of 2 mg/kg WX-554 and 50 mg/kg WX-037 once daily for 14 days. Tumour volume was monitored by calliper measurement using the equation a ^2 × b/2, where a is the smallest measurement and b the largest. Data are presented as median relative tumour volumes (RTV), where the tumour volume in each mouse on the initial day of treatment (day 0) is assigned an RTV value of 1. The time to RTV4 for each individual tumour was calculated based on a standard point to point curve with 1000 segments using GraphPad Prism software (CA, USA). Mann–Whitney U tests were used to compare the different groups, i.e., the control versus each treatment group, the single agents versus each other and each single agent versus their combination. Differences with a p value ≤0.05 were considered statistically significant.
Based on the results of the PK study, the efficacy of 50 mg/kg of the PI3K inhibitor WX-037 and 2 mg/kg of the MEK inhibitor WX-554 given orally, as single agents and in combination, was assessed in HCT116 human tumour xenograft-bearing mice (Fig. 5). […] In this study, mice were treated daily for 14 days and tumour volumes were measured three times a week.

[9] = test system: phosphorylation of ERK1/2, AKT, S6 and 4EBP1 in HT29 cells; experiment: Western blotting of PI3K/AKT and MAPK signal transduction, HT29; format: cell-based, human; details: HT29, 24 h, 1x or 10x GI50, Western blot
Description: (§5) Western blots were prepared, probed with phospho-4EBP1 (Thr37/46) (#2855), phospho-p44/42 MAPK (Thr202/Tyr204) (#4370), phospho-AKT (Ser473) (#4060) or phospho-S6 ribosomal protein (Ser235/236) (#4858) monoclonal antibodies obtained from Cell Signalling Technology (New England BioLabs (UK) Ltd, Hertfordshire, UK) and developed as described previously. Blots were then stripped (100 mM 2-mercaptoethanol, 2% (w/v) SDS and 62.5 mM Tris pH6.8 at 55 °C for 30 min) and re-probed with the respective total monoclonal antibody (4EBP1 (53H11) (#9644), p44/42 MAPK (ERK1/2) (#4695), AKT (pan) (C67E7) (#4691) or S6 ribosomal protein (5g10) (#2217)) obtained from Cell Signalling Technology (New England BioLabs (UK) Ltd, Hertfordshire, UK) and developed as described above.

[10] = test system: MEK1; details: stated in Introduction, method and reference not given; read-out: half maximal inhibitory concentration (IC50), MEK1; cited from earlier work
[11] = test system: MEK2; details: stated in Introduction, method and reference not given; read-out: half maximal inhibitory concentration (IC50), MEK2; cited from earlier work
[12] = Pharmacokinetic study, plasma and tumour concentrations, HCT116 xenograft-bearing mice; format: in vivo
Description: as §2, §3

[13] = test system: phosphorylation of ERK1/2, AKT, S6 and 4EBP1 in HCT116 cells; experiment: Western blotting of PI3K/AKT and MAPK signal transduction, HCT116; format: cell-based, human; details: HCT116, 24 h, 1x or 10x GI50, Western blot
Description: as §5

[14] = test system: HCT116 cells; experiment: Clonogenic cytotoxicity assay, HCT116
Description: as §6, §7

[15] = test system: HT29 cells; experiment: Sulforhodamine B (SRB) growth inhibition assay with median effect analysis, HT29; format: cell-based, human
Description: as §1

[16] = test system: HCT116 human tumour xenografts; experiment: Anti-tumour activity in HCT116 xenograft-bearing mice; format: in vivo; details: 2 mg/kg WX-554 and/or 50 mg/kg WX-037 p.o. once daily for 14 days
Description: as §2, §4

[17] = 1 mg/kg WX-554 + 20 mg/kg WX-037, single p.o. dose
[18] = 1 mg/kg WX-554 + 100 mg/kg WX-037, single p.o. dose
[19] = 1 mg/kg WX-554 alone, single p.o. dose
[20] = 5 mg/kg WX-554 + 20 mg/kg WX-037, single p.o. dose
[21] = 5 mg/kg WX-554 + 100 mg/kg WX-037, single p.o. dose
[22] = 5 mg/kg WX-554 alone, single p.o. dose

Compound: O=C(NOC[C@H](O)CO)c1ccc(F)c(F)c1Nc1ccc(I)cc1F [PD 0325901]
- GI50 ([1]; HCT116, using the same assay): 21 nM
- GI50 ([2]; HT29, using the same assay): 6.5 nM

Compound: NCC1CN(C(=O)c2c(Nc3ccc(I)cc3F)sc3ncccc23)C1 [WX-554]
- GI50 ([3]; 72-h exposure, SRB, read-out: GI50 (half maximal growth inhibitory concentration)): 38 nM
- in vitro GI50 value ([3]; determined in Supplementary Figure 1): 0.018 µg/mL
- safety and tolerability [4]: safe and tolerable
- LC50 fold higher than the corresponding GI50 ([5]; HT29): ~372 fold
- cell kill (cytotoxicity, cell death) ([5]; HT29, single agent 10 µM, 72 h, clonogenic assay): 75%
- CC50 ([5]; read-out: mean lethal concentration (LC50), HT29, 72-h exposure, clonogenic assay): 1600 nM
- WX-554 Concentration ± SD, Plasma, 6 hours [6, 17]: 101 ± 39 ng/mL
- WX-554 Concentration ± SD, Plasma, 24 hours [6, 17]: 5 ± 3 ng/mL
- WX-554 Concentration ± SD, Tumour, 6 hours [6, 17]: 1180 ± 597 ng/mL
- WX-554 Concentration ± SD, Tumour, 24 hours [6, 17]: 447 ± 80 ng/mL
- WX-554 Concentration ± SD, Plasma, 6 hours [6, 18]: 19 ± 14 ng/mL
- WX-554 Concentration ± SD, Plasma, 24 hours [6, 18]: 13 ± 7 ng/mL
- WX-554 Concentration ± SD, Tumour, 6 hours [6, 18]: 159 ± 102 ng/mL
- WX-554 Concentration ± SD, Tumour, 24 hours [6, 18]: 407 ± 66 ng/mL
- WX-554 Concentration ± SD, Plasma, 6 hours [6, 19]: 21 ± 1 ng/mL
- WX-554 Concentration ± SD, Plasma, 24 hours [6, 19]: 3 ± 1 ng/mL
- WX-554 Concentration ± SD, Tumour, 6 hours [6, 19]: 510 ± 40 ng/mL
- WX-554 Concentration ± SD, Tumour, 24 hours [6, 19]: 419 ± 134 ng/mL
- WX-554 Concentration ± SD, Plasma, 6 hours [6, 20]: 81 ± 26 ng/mL
- WX-554 Concentration ± SD, Plasma, 24 hours [6, 20]: 52 ± 58 ng/mL
- WX-554 Concentration ± SD, Tumour, 6 hours [6, 20]: 1143 ± 416 ng/mL
- WX-554 Concentration ± SD, Tumour, 24 hours [6, 20]: 2493 ± 979 ng/mL
- WX-554 Concentration ± SD, Plasma, 6 hours [6, 21]: 47 ± 33 ng/mL
- WX-554 Concentration ± SD, Plasma, 24 hours [6, 21]: 49 ± 10 ng/mL
- WX-554 Concentration ± SD, Tumour, 6 hours [6, 21]: 446 ± 239 ng/mL
- WX-554 Concentration ± SD, Tumour, 24 hours [6, 21]: 2423 ± 584 ng/mL
- WX-554 Concentration ± SD, Plasma, 6 hours [6, 22]: 118 ± 25 ng/mL
- WX-554 Concentration ± SD, Plasma, 24 hours [6, 22]: 13 ± 3 ng/mL
- WX-554 Concentration ± SD, Tumour, 6 hours [6, 22]: 2748 ± 378 ng/mL
- WX-554 Concentration ± SD, Tumour, 24 hours [6, 22]: 1916 ± 207 ng/mL
- bioavailability [7]: very good bioavailability
- tolerability / toxicity [8]: non-toxic
- reduction of ERK1/2 phosphorylation [9]: at 10 times the GI50 concentration in the HT29 cell line
- IC50 [10]: 4.7 nM
- IC50 [11]: 11 nM
- WX-554 Concentration ± SD, Plasma, 6 hours [12, 17]: 17 ± 9 ng/mL
- WX-554 Concentration ± SD, Plasma, 24 hours [12, 17]: 6 ± 6 ng/mL
- WX-554 Concentration ± SD, Tumour, 6 hours [12, 17]: 184 ± 62 ng/mL
- WX-554 Concentration ± SD, Tumour, 24 hours [12, 17]: 141 ± 58 ng/mL
- WX-554 Concentration ± SD, Plasma, 6 hours [12, 18]: 20 ± 10 ng/mL
- WX-554 Concentration ± SD, Plasma, 24 hours [12, 18]: 10 ± 7 ng/mL
- WX-554 Concentration ± SD, Tumour, 6 hours [12, 18]: 319 ± 139 ng/mL
- WX-554 Concentration ± SD, Tumour, 24 hours [12, 18]: 464 ± 263 ng/mL
- WX-554 Concentration ± SD, Plasma, 6 hours [12, 19]: 19 ± 5 ng/mL
- WX-554 Concentration ± SD, Plasma, 24 hours [12, 19]: 2 ± 1 ng/mL
- WX-554 Concentration ± SD, Tumour, 6 hours [12, 19]: 478 ± 97 ng/mL
- WX-554 Concentration ± SD, Tumour, 24 hours [12, 19]: 309 ± 30 ng/mL
- WX-554 Concentration ± SD, Plasma, 6 hours [12, 20]: 74 ± 27 ng/mL
- WX-554 Concentration ± SD, Plasma, 24 hours [12, 20]: 28 ± 7 ng/mL
- WX-554 Concentration ± SD, Tumour, 6 hours [12, 20]: 673 ± 453 ng/mL
- WX-554 Concentration ± SD, Tumour, 24 hours [12, 20]: 1240 ± 282 ng/mL
- WX-554 Concentration ± SD, Plasma, 6 hours [12, 21]: 98 ± 18 ng/mL
- WX-554 Concentration ± SD, Plasma, 24 hours [12, 21]: 68 ± 19 ng/mL
- WX-554 Concentration ± SD, Tumour, 6 hours [12, 21]: 804 ± 353 ng/mL
- WX-554 Concentration ± SD, Tumour, 24 hours [12, 21]: 1583 ± 369 ng/mL
- WX-554 Concentration ± SD, Plasma, 6 hours [12, 22]: 130 ± 37 ng/mL
- WX-554 Concentration ± SD, Plasma, 24 hours [12, 22]: 11 ± 2 ng/mL
- WX-554 Concentration ± SD, Tumour, 6 hours [12, 22]: 1724 ± 442 ng/mL
- WX-554 Concentration ± SD, Tumour, 24 hours [12, 22]: 360 ± 223 ng/mL
- reduction of ERK1/2 phosphorylation [13]: reduced ERK1/2 phosphorylation at 1 and 10 times the GI50 concentration
- LC50 fold higher than the corresponding GI50 ([14]; HCT116): approximately 16 fold
- cell kill (cytotoxicity, cell death) ([14]; HCT116, single agent 10 µM, 72 h, clonogenic assay): 67%
- CC50 ([14]; read-out: mean lethal concentration (LC50), HCT116, 72-h exposure, clonogenic assay): 600 nM
- GI50 ([1]; HCT116, unpublished Wilex studies): 29 nM
- fold difference in sensitivity, HT29 more sensitive than HCT116 ([15]; GI50 HCT116 versus GI50 HT29): 9 fold
- GI50 ([15]; HT29, single agent, 72-h exposure, SRB, read-out: GI50 (half maximal growth inhibitory concentration)): 4.3 nM and 4 nM
- in vitro GI50 value ([15]; HT29, single agent, determined in Supplementary Figure 1): 0.002 µg/mL
- GI50 ([2]; HT29, unpublished Wilex studies): 7.2 nM
- tumour growth compared to vehicle-treated control tumours [16]: caused tumour growth delay; also recorded: induced tumour growth delay

Compound: CS(=O)(=O)N1CCN(Cc2cc3nc(-c4cccc5[nH]ncc45)nc(N4CCOCC4)c3s2)CC1 [pictilisib, 2-(1H-Indazol-4-yl)-6-(4-methanesulfonyl-piperazin-1-ylmethyl)-4-morpholin-4-yl-thieno[3,2-d]pyrimidine]
- GI50 ([1]; HCT116, using the same assay): 1080 nM
- GI50 ([2]; HT29, using the same assay): 157 nM
